# From PMC8330742, “New benzothieno[2,3-c]pyridines as non-steroidal CYP17 inhibitors: design, synthesis, anticancer screening, apoptosis induction, and in silico ADME profile studies” (Journal of Enzyme Inhibition and Medicinal Chemistry, 2021)
# Tests used:
# CCRF-CEM = test: NCI-60 SRB screen; format: cell-based; settings: Homo sapiens, single dose 10^−5 M, read-out: Growth inhibition (%)
# HL-60(TB) = test: NCI-60 SRB screen; format: cell-based, human; settings: Homo sapiens; HL-60 (TB); single dose 10^−5 M; read-out: Growth inhibition (%)
# K-562 = test: NCI-60 SRB screen; format: cell-based, human; settings: Homo sapiens, K562; K-562; single dose 10^−5 M; read-out: Growth inhibition (%)
# MOLT-4 = test: NCI-60 SRB screen; format: cell-based; settings: Homo sapiens; MOLT-4; single dose 10^−5 M; read-out: Growth inhibition (%)
# SR = test: NCI-60 SRB screen; format: cell-based; settings: Homo sapiens, single dose 10^−5 M, read-out: Growth inhibition (%)
# A549/ATCC = test: NCI-60 SRB screen; format: cell-based, human; settings: Homo sapiens, single dose 10^−5 M, read-out: Growth inhibition (%)
# EKVX = test: NCI-60 SRB screen; format: cell-based, human; settings: Homo sapiens, single dose 10^−5 M, read-out: Growth inhibition (%)
# HOP-62 = test: NCI-60 SRB screen; format: cell-based, human; settings: Homo sapiens; HOP-62; single dose 10^−5 M; read-out: Growth inhibition (%)
# HOP-92 = test: NCI-60 SRB screen; format: cell-based, human; settings: Homo sapiens; HOP-92; single dose 10^−5 M; read-out: Growth inhibition (%)
# NCI-H226 = test: NCI-60 SRB screen; format: cell-based, human; settings: Homo sapiens; NCI-H226; single dose 10^−5 M; read-out: Growth inhibition (%)
# NCI-H23 = test: NCI-60 SRB screen; format: cell-based, human; settings: Homo sapiens; NCI-H23; single dose 10^−5 M; read-out: Growth inhibition (%)
# NCI-H322M = test: NCI-60 SRB screen; format: cell-based, human; settings: Homo sapiens, single dose 10^−5 M, read-out: Growth inhibition (%)
# NCI-H460 = test: NCI-60 SRB screen; format: cell-based, human; settings: Homo sapiens; NCI-H460; single dose 10^−5 M; read-out: Growth inhibition (%)
# NCI-H522 = test: NCI-60 SRB screen; format: cell-based, human; settings: Homo sapiens; NCI-H522; single dose 10^−5 M; read-out: Growth inhibition (%)
# COLO 205 = test: NCI-60 SRB screen; format: cell-based, human; settings: Homo sapiens; COLO 205; single dose 10^−5 M; read-out: Growth inhibition (%)
# HCC-2998 = test: NCI-60 SRB screen; format: cell-based, human; settings: Homo sapiens; HCC-2998; single dose 10^−5 M; read-out: Growth inhibition (%)
# HCT-116 = test: NCI-60 SRB screen; format: cell-based, human; settings: Homo sapiens; HCT-116; single dose 10^−5 M; read-out: Growth inhibition (%)
# HCT-15 = test: NCI-60 SRB screen; format: cell-based, human; settings: Homo sapiens; HCT-15; single dose 10^−5 M; read-out: Growth inhibition (%)
# HT-29 = test: NCI-60 SRB screen; format: cell-based; settings: Homo sapiens; HT-29; single dose 10^−5 M; read-out: Growth inhibition (%)
# KM12 = test: NCI-60 SRB screen; format: cell-based, human; settings: Homo sapiens; KM12; single dose 10^−5 M; read-out: Growth inhibition (%)
# SW-620 = test: NCI-60 SRB screen; format: cell-based; settings: Homo sapiens; SW-620; single dose 10^−5 M; read-out: Growth inhibition (%)
# SF-268 = test: NCI-60 SRB screen; format: cell-based, human; settings: Homo sapiens; SF-268; single dose 10^−5 M; read-out: Growth inhibition (%)
# SF-295 = test: NCI-60 SRB screen; format: cell-based, human; settings: Homo sapiens; SF-295; single dose 10^−5 M; read-out: Growth inhibition (%)
# LOX IMVI = test: NCI-60 SRB screen; format: cell-based, human; settings: Homo sapiens, single dose 10^−5 M, read-out: Growth inhibition (%)
# MALME-3M = test: NCI-60 SRB screen; format: cell-based, human; settings: Homo sapiens, single dose 10^−5 M, read-out: Growth inhibition (%)
# M14 = test: NCI-60 SRB screen; format: cell-based, human; settings: Homo sapiens; M14; single dose 10^−5 M; read-out: Growth inhibition (%)
# MDA-MB-435 = test: NCI-60 SRB screen; format: cell-based; settings: Homo sapiens, MDA-MB-435, read-out: Growth inhibition (%)
# SK-MEL-2 = test: NCI-60 SRB screen; format: cell-based, human; settings: Homo sapiens; SK-MEL-2; single dose 10^−5 M; read-out: Growth inhibition (%)
# SK-MEL-28 = test: NCI-60 SRB screen; format: cell-based; settings: Homo sapiens; SK-MEL-28; single dose 10^−5 M; read-out: Growth inhibition (%)
# SK-MEL-5 = test: NCI-60 SRB screen; format: cell-based, human; settings: Homo sapiens; SK-MEL-5; single dose 10^−5 M; read-out: Growth inhibition (%)
# UACC-62 = test: NCI-60 SRB screen; format: cell-based, human; settings: Homo sapiens; UACC-62; single dose 10^−5 M; read-out: Growth inhibition (%)
# IGROV1 = test: NCI-60 SRB screen; format: cell-based, human; settings: Homo sapiens, IGROV-1; IGROV1; single dose 10^−5 M; read-out: Growth inhibition (%)
# OVCAR-3 = test: NCI-60 SRB screen; format: cell-based, human; settings: Homo sapiens; OVCAR-3; single dose 10^−5 M; read-out: Growth inhibition (%)
# OVCAR-4 = test: NCI-60 SRB screen; format: cell-based, human; settings: Homo sapiens; OVCAR-4; single dose 10^−5 M; read-out: Growth inhibition (%)
# OVCAR-8 = test: NCI-60 SRB screen; format: cell-based, human; settings: Homo sapiens; OVCAR-8; single dose 10^−5 M; read-out: Growth inhibition (%)
# NCI/ADR-RES = test: NCI-60 SRB screen; format: cell-based, human; settings: Homo sapiens, single dose 10^−5 M, read-out: Growth inhibition (%)
# SK-OV-3 = test: NCI-60 SRB screen; format: cell-based, human; settings: Homo sapiens; SK-OV-3; single dose 10^−5 M; read-out: Growth inhibition (%)
# ACHN = test: NCI-60 SRB screen; format: cell-based; settings: Homo sapiens, single dose 10^−5 M, read-out: Growth inhibition (%)
# CAKI-1 = test: NCI-60 SRB screen; format: cell-based, human; settings: Homo sapiens; CAKI-1; single dose 10^−5 M; read-out: Growth inhibition (%)
# RXF 393 = test: NCI-60 SRB screen; format: cell-based, human; settings: Homo sapiens; RXF 393; single dose 10^−5 M; read-out: Growth inhibition (%)
# SN12C = test: NCI-60 SRB screen; format: cell-based, human; settings: Homo sapiens, SN12C; SN 12 C; single dose 10^−5 M; read-out: Growth inhibition (%)
# TK-10 = test: NCI-60 SRB screen; format: cell-based, human; settings: Homo sapiens; TK-10; single dose 10^−5 M; read-out: Growth inhibition (%)
# UO-31 = test: NCI-60 SRB screen; format: cell-based, human; settings: Homo sapiens; UO-31; single dose 10^−5 M; read-out: Growth inhibition (%)
# [1] = system: panel of 60 cancer cell lines; test: NCI-60 SRB screen, mean or range over the panel; format: cell-based, human; settings: Homo sapiens; mean over the cell lines; single dose 10^−5 M; read-out: Mean growth inhibition (%)
structure (smiles),measurement,setting,value
"O=C1NC(c2cccc([N+](=O)[O-])c2)c2sc3c(F)cccc3c2C1Cl (centres unmarked) [Compound 4d, 4-Chloro-8-fluoro-1-(3-nitrophenyl)-1,2-dihydro[1]benzothieno[2,3-c] pyridine-3(4H)-one]",inhibition at 10 µM,CCRF-CEM,1.99%
same,inhibition at 10 µM,HL-60(TB),-16.8%
same,inhibition at 10 µM,K-562,23%
same,inhibition at 10 µM,MOLT-4,9.18%
same,inhibition at 10 µM,SR,11.4%
same,inhibition at 10 µM,A549/ATCC,-2.89%
same,inhibition at 10 µM,EKVX,0.87%
same,inhibition at 10 µM,HOP-62,1.22%
same,inhibition at 10 µM,HOP-92,5.89%
same,inhibition at 10 µM,NCI-H226,5.26%
same,inhibition at 10 µM,NCI-H23,-1.19%
same,inhibition at 10 µM,NCI-H322M,-0.93%
same,inhibition at 10 µM,NCI-H460,1.43%
same,inhibition at 10 µM,NCI-H522,8.55%
same,inhibition at 10 µM,COLO 205,-17.2%
same,inhibition at 10 µM,HCC-2998,-15.9%
same,inhibition at 10 µM,HCT-116,9.54%
same,inhibition at 10 µM,HCT-15,1.31%
same,inhibition at 10 µM,HT-29,2.3%
same,inhibition at 10 µM,KM12,-5.21%
same,inhibition at 10 µM,SW-620,3.43%
same,inhibition at 10 µM,SF-268,6.94%
same,inhibition at 10 µM,SF-295,-3.1%
same,inhibition at 10 µM,LOX IMVI,5.22%
same,inhibition at 10 µM,MALME-3M,4.62%
same,inhibition at 10 µM,M14,-0.99%
same,inhibition at 10 µM,MDA-MB-435,-7.63%
same,inhibition at 10 µM,SK-MEL-2,-26.1%
same,inhibition at 10 µM,SK-MEL-28,-10.5%
same,inhibition at 10 µM,SK-MEL-5,4.05%
same,inhibition at 10 µM,UACC-62,10.4%
same,inhibition at 10 µM,IGROV1,22.8%
same,inhibition at 10 µM,OVCAR-3,-4.91%
same,inhibition at 10 µM,OVCAR-4,1.96%
same,inhibition at 10 µM,OVCAR-8,-1.82%
same,inhibition at 10 µM,NCI/ADR-RES,-8.05%
same,inhibition at 10 µM,SK-OV-3,-10.2%
same,inhibition at 10 µM,ACHN,6.28%
same,inhibition at 10 µM,CAKI-1,27.4%
same,inhibition at 10 µM,RXF 393,-18.1%
same,inhibition at 10 µM,SN12C,2.95%
same,inhibition at 10 µM,TK-10,-40.7%
same,inhibition at 10 µM,UO-31,34.7%
same,inhibition at 10 µM,[1],0.15%
